Laboratory results: patent publication US8835447B2, “Method for treating androgen receptor positive cancers” (priority 2009, dated 2014)
Entries after “also recorded” stand apart in the source; their conditions may differ.

Experiments:
[1] = test system: LNCaP cells; experiment: Colony formation assay, LNCaP cells; format: cell-based, human; conditions: 10 μM, 7 days
Description: (§1) Cell Colony Assay: Cells were plated in 24-well plates at a density allowing 6-7 days of exponential growth before confluency. Medium and compound was replaced every 48 hours to minimize the effect of potential compound instability. After 7 days of incubation in the presence of compound, cells were fixed and stained with methylene blue, followed by extraction of the stain with 1% SDS and spectrophotometry at 650 nm. Each assay was run in triplicate and the difference between control and compound-treated wells was determined using Student's t-test. This Example provides a description of the effect of the selected compounds on the growth of PCa cells. To test the toxicity of the identified AR inhibitors towards cells of different origins, we performed colony formation assays using a single dose of each compound (10 μM) on several PCa (LNCaP, C4-2, CW[…] and DU145) and two non-PCa (HT1080 and HeLa) cell lines (FIG. 2A). […] These compounds were not weaker inhibitors of AR transcriptional activity in CW[…] or C4-2 cells than compounds that inhibited growth of the cells.

[2] = test system: C4-2 and CWR22R cells; experiment: Colony formation assay, androgen-independent C4-2 and CWR22R cells; format: cell-based, human; conditions: 10 μM, 7 days
Description: as §1

[3] = test system: HT1080, HeLa and DU145 cells; experiment: Colony formation assay, non-PCa and AR-negative PCa cells; format: cell-based, human; conditions: 10 μM, 7 days
Description: (§2) Cell Colony Assay: Cells were plated in 24-well plates at a density allowing 6-7 days of exponential growth before confluency. Medium and compound was replaced every 48 hours to minimize the effect of potential compound instability. After 7 days of incubation in the presence of compound, cells were fixed and stained with methylene blue, followed by extraction of the stain with 1% SDS and spectrophotometry at 650 nm. Each assay was run in triplicate and the difference between control and compound-treated wells was determined using Student's t-test.
This Example provides a description of the effect of the selected compounds on the growth of PCa cells. To test the toxicity of the identified AR inhibitors towards cells of different origins, we performed colony formation assays using a single dose of each compound (10 μM) on several PCa (LNCaP, C4-2, CWR22R and DU145) and two non-PCa (HT1080 and HeLa) cell lines (FIG. 2A). […] These compounds were not weaker inhibitors of AR transcriptional activity in CWR22R or C4-2 cells than compounds that inhibited growth of the cells.

[4] = test system: AR-expressing PCa cell lines (LNCaP, C4-2, CWR22R); experiment: Toxicity to AR-expressing PCa cell lines (colony formation / dose-dependent growth inhibition); format: cell-based, human; conditions: for toxicity towards AR-expressing PCa cell lines: colony formation, 10 μM, three AR-expressing PCa cell lines; for degree of toxicity to PCa cells (killing vs reduced growth): dose-dependent toxicity, by day 7
Description: as §2
Dose-dependent inhibition of cell growth: Cells were plated at 1×10^3 cells per well in 96-well plates. Compounds were added in a dose range from 1 to 20000 nM in two-fold increments. Each dose was tested in triplicate. Controls were 0.1% DMSO (no effect on cell viability) and 50 μM 9-aminoacridine (complete cell death). Cells were incubated for 6 days and then fixed and stained with methylene blue, followed by extraction of the stain with 1% SDS and spectrophotometry at 650 nm. The assay was run two times and, based on the results, the inhibitory concentration of compound suppressing cell growth by 50% as compared to DMSO (IC50) was calculated by the sigmoid approximation method using CalcuSyn software (Biosoft, Chembridge, UK). Confidence intervals were calculated for each sigmoid.
This Example provides a description of the effect of the selected compounds on the growth of PCa cells. To test the toxicity of the identified AR inhibitors towards cells of different origins, we performed colony formation assays using a single dose of each compound (10 μM) on several PCa (LNCaP, C4-2, CWR22R and DU145) and two non-PCa (HT1080 and HeLa) cell lines (FIG. 2A). […] These compounds were not weaker inhibitors of AR transcriptional activity in CWR22R or C4-2 cells than compounds that inhibited growth of the cells. […]

[5] = test system: C4-2 tumors; experiment: C4-2 xenograft model in nude mice; format: in vivo, mouse; conditions: 6 daily i.p. injections, 100xIC50 dose
From the text: FIGS. 6A and 6B provide data showing anti-tumor activity of the selected hits in mouse models of androgen-independent PCa. FIG. 6A provides a graphical representation of data obtained from i.p. injection of the listed compounds or DMSO vehicle into nude mice carrying subcutaneous (s.c.) C4-2 tumors. Six daily injections were given starting when tumors were around 100 mm3 in size. There were 4-5 mice per group with two tumors per mouse. Asterisks (*) and number signs (#) are placed under the means of measurement in the c6 and c11 groups respectively which are statistically different from the control group by ANOVA test (>99%) B. C52 (9 mg/kg or 18 mg/kg) or DMSO vehicle was injected into the tail vein of nude mice carrying s.c. CWR22R tumors. Five daily injections were given starting when tumors were around 40 mm3 in size. There were 10 mice per group with one tumor per mouse. Asterisks (*) are placed under the means of measurement which are statistically different from the control group by ANOVA test (>99%). Error bars in both FIGS. 6A and B—standard deviation between the size of tumors within a given treatment group.
Testing of the anti-tumor effect of compounds in mice was done according to an IACUC-approved protocol in 8 week old male athymic nude mice from Harlan (Indianapolis, Ind.). For the C4-2 xenograft model, 10^6 C4-2 cells were injected subcutaneously (s.c.) in 2 sites of each mouse in 50% matrigel (BD Biosciences, Bradford, Mass.) in PBS. Upon development of visible tumors, they were measured using digital caliper. Tumor volume was calculated according to the formula: […]. Mice were injected with compounds i.p. daily for 6 days starting on the day when at least one tumor per mouse reached 100 mm^3 in size. Five mice per group were used. For the CWR22R xenograft model, CWR22R cells were inoculated (10^5 cells per inoculum) in 50% matrigel, one site per mouse. Treatment was started when the tumor grew to a size of at least 25 mm^3. Compounds were diluted in captisol (CyDex, Lenexa, Kans.) and delivered intravenously (to reduce “first pass” liver effect) once a day for 5 days. Ten mice per group were used. Mice were monitored daily and tumors were measured every other day. Mice were euthanized according to institutional regulations when the size of tumor reached 1000 mm^3. Comparison of the tumor growth in control and treated mice was done using ANOVA test.
We evaluated the potential anti-tumor effect of the hits using C4-2 and CWR22R xenograft models of androgen-independent PCa in nude mice. Groups of C4-2 tumor-bearing mice (4-5 mice per group, each with two tumors) were given 6 daily i.p. injections of compound (100×IC50 dose) or DMSO vehicle.

[6] = test system: CWR22R cells; experiment: Cell cycle distribution by propidium iodide staining; format: cell-based, human; conditions: for changes in cell cycle distribution: increase in G1, decrease in S phase; for cells with sub-G1 DNA content (apoptotic): propidium iodide FACS
Description: Analysis of cell cycle distribution was based on staining of DNA content by propidium iodide. 10^5 cells were removed from culture dishes using trypsin, washed with PBS and resuspended in 300 μl 3% BSA in PBS, followed by addition of […] 70% ethanol. Cells were kept at −20° C. for several hours and then stained with 10 μg/ml propidium iodide in the presence of 30 μg/ml RNase A for 2 hrs at 37° C. DNA content was assessed using a FACS Calibur instrument and CellQuest software (Becton Dickinson, Franklin Lakes, N.J.).
To test this possibility, we assessed the cell cycle distribution of CWR22R cells treated with both categories of compounds. […] Therefore, different subsets of compounds inhibiting AR-dependent transcription in androgen-independent PCa cells cause either growth arrest or apoptosis in these cells. Whether a compound causes growth arrest or apoptosis is not determined by the potency of the compound as an inhibitor of AR-dependent transcription (i.e., FIG. 2B).

[7] = test system: NIH Swiss mice; experiment: Compound safety in mice, dose escalation; format: in vivo; conditions: three i.p. injections 20x, 50x, 100xIC50 in 3 day intervals
Description: Testing of compound safety in mice was done according to an IACUC-approved protocol. The experiment was performed using outbred 8 week old NIH Swiss male mice from Harlan (Indianapolis, Ind.), 4 mice per group. IC50 concentrations were used to calculate in vivo doses based on mouse weight (IC50 in vivo dose equivalent in mg/kg=IC50 in mg/ml×1000, based on the assumption that 1 g of mouse tissues have an approximate volume of 1 ml). The compounds were injected intraperitoneally (i.p.) in 25% DMSO-75% PBS starting from 20×IC50 equivalent of in vitro cytotoxic dose of compounds. […]. The control group of mice received 3 injections of 25% DMSO-75% PBS in intervals of three days. Blood biochemistry analysis was performed by BioReliance (Rockville, Md.).
Five hit compounds, representing both the ARTIS and ARTIK categories (c6, c11, c17, c52 and c85), were selected for in vivo tests based on all of the previous assays. Compound c5 was rejected due to very low microsomal stability (<5% after 1 hour incubation with rat microsomes). The toxicity of the compounds was evaluated in a dose escalation assay in which male NIH Swiss mice (n=4) received three sequential intraperitoneal (i.p.) injections of each compound delivered in 3 day intervals. […]. On the day after the last injection, half of the mice in each group were sacrificed for gross pathology examination and collection of blood for serum biochemistry assays, which include total protein, glucose, bilirubin, and creatinine levels, activity of liver enzymes, and ion concentrations. The remaining mice were sacrificed and evaluated similarly 7 days after the last compound injection. […] A minor decrease in serum glucose concentration (70-80% of control) was observed on the day after the last compound injection in almost all mice, but glucose levels were normal a week later (data not shown). Low serum glucose level might reflect of a weak transient GR-inhibitory effect of the selected compounds.

C=CCc1ccc(OCCCOc2ccccc2C(C)=O)c(OC)c1 [c47]
growth of androgen-sensitive LNCaP cells [1]: suppressed growth of LNCaP cells; also recorded: suppress growth of androgen-sensitive LNCaP cells | growth of androgen-independent C4-2 and CWR22R cells [2]: do not affect growth

O=C(NC(=S)Nc1nc(-c2ccccc2)cs1)c1ccc(-c2ccccc2)cc1 [c17]
growth of / toxicity towards non-PCa cells or AR-negative PCa cells (DU145) [3]: no toxicity | toxicity towards AR-expressing PCa cell lines [4]: different degrees of toxicity; also recorded: suppress growth of all | degree of toxicity to PCa cells (killing vs reduced growth) [4]: reduced growth as compared to untreated control cells, but not obvious cell death | C4-2 tumor growth [5]: did not

CC1=C(C(=O)OCCc2ccccc2)C(c2ccc(Cl)cc2)C2=C(CCCC2=O)N1 (centres unmarked) [c8]
growth of androgen-sensitive LNCaP cells [1]: suppressed growth of LNCaP cells; also recorded: suppress growth of androgen-sensitive LNCaP cells | growth of androgen-independent C4-2 and CWR22R cells [2]: do not affect growth

Cc1ccc(OCC(=O)Nc2ccc(Cl)c([N+](=O)[O-])c2)c(C)c1 [c61]
growth of androgen-sensitive LNCaP cells [1]: suppressed growth of LNCaP cells; also recorded: suppress growth of androgen-sensitive LNCaP cells | growth of androgen-independent C4-2 and CWR22R cells [2]: do not affect growth

CC(C)(C)c1ccc(C(=O)Nc2ccc(NC(=O)c3ccc4c(c3)OCCO4)cc2)cc1 [c11]
growth of / toxicity towards non-PCa cells or AR-negative PCa cells (DU145) [3]: no toxicity | toxicity towards AR-expressing PCa cell lines [4]: different degrees of toxicity; also recorded: suppress growth of all | degree of toxicity to PCa cells (killing vs reduced growth) [4]: reduced growth as compared to untreated control cells, but not obvious cell death | C4-2 tumor growth [5]: clear suppression of C4-2 tumor growth | changes in cell cycle distribution [6]: cell cycle arrest | cells with sub-G1 DNA content (apoptotic) [6]: did not result in appearance of cells with sub-G1 DNA content | toxicity in mice (visual inspection, gross pathology) [7]: generally non-toxic

FC(F)(F)c1ccccc1CN1CCN(Cc2c[nH]c3ccccc23)CC1 [c66]
growth of / toxicity towards non-PCa cells or AR-negative PCa cells (DU145) [3]: exception

Clc1ccccc1C1Nc2cccc3cccc(c23)N1 [c6]
growth of / toxicity towards non-PCa cells or AR-negative PCa cells (DU145) [3]: no toxicity | toxicity towards AR-expressing PCa cell lines [4]: different degrees of toxicity; also recorded: suppress growth of all | degree of toxicity to PCa cells (killing vs reduced growth) [4]: reduced growth as compared to untreated control cells, but not obvious cell death | C4-2 tumor growth [5]: clear suppression of C4-2 tumor growth | changes in cell cycle distribution [6]: cell cycle arrest | cells with sub-G1 DNA content (apoptotic) [6]: did not result in appearance of cells with sub-G1 DNA content | toxicity in mice (visual inspection, gross pathology) [7]: generally non-toxic

c1ccc(CNc2ccc(-c3nc4ccccc4o3)cc2)cc1 [c55]
growth of androgen-sensitive LNCaP cells [1]: suppressed growth of LNCaP cells; also recorded: suppress growth of androgen-sensitive LNCaP cells | growth of androgen-independent C4-2 and CWR22R cells [2]: do not affect growth

CC(C)c1ccc2oc(-c3cccc(NC(=S)NC(=O)c4ccccc4Br)c3)nc2c1 [c16]
growth of androgen-sensitive LNCaP cells [1]: suppressed growth of LNCaP cells; also recorded: suppress growth of androgen-sensitive LNCaP cells | growth of androgen-independent C4-2 and CWR22R cells [2]: do not affect growth

C=CCc1ccccc1OCCOc1ccc(C=Nn2cnnc2)cc1OC [c18]
growth of / toxicity towards non-PCa cells or AR-negative PCa cells (DU145) [3]: no toxicity | toxicity towards AR-expressing PCa cell lines [4]: different degrees of toxicity; also recorded: suppress growth of all | degree of toxicity to PCa cells (killing vs reduced growth) [4]: reduced growth as compared to untreated control cells, but not obvious cell death
